Like-named read-outs stand apart in the source and are kept apart here.
How the values were obtained:
[1] = system: ENR+CD organoids; settings: primary screen; for Z.CTG: standard z score;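 for all read-outs here: compounds given at plating and again on day 3 over a 6-day differentiation from ENR+CV stem-cell-enriched precursors, ATP measured on day 6, plate median as control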
[2] = system: ENR+CD organoids (ISC to Paneth cell differentiation); test: Primary screen: basal (non-stimulated) lysozyme secretion LYZ.NS, 2.5-D 384-well ENR+CD organoid differentiation; type: cell-based, mouse; settings: for Dose.FC.LYZ.NS / Z.LYZ.NS / Z.LYZ.NS (standard z score): primary screen; for Z.LYZ.NS: standard z score; for primary screen hit call (SSMD and z-scored FC cutoffs in both LYZ assays): LYZ.NS and LYZ.S, 0.08-10 uM, 6 days ENR+CD
Text: (§1) High-throughput screening.

[3] = system: ENR+CD organoids (ISC to Paneth cell differentiation); test: Primary screen: CCh-stimulated lysozyme secretion LYZ.S, 2.5-D 384-well ENR+CD organoid differentiation; type: cell-based, mouse; settings: primary screen
Text: as §1

[4] = system: 3D-cultured intestinal organoids (ENR or ENR+CD); test: Lysozyme secretion assay (3D culture), normalized to ATP; type: cell-based, mouse; settings: 6-day ENR+CD differentiation
Protocol: Lysozyme assay (3D culture). ISC-enriched organoids cultured in 3D Matrigel with ENRCV media were passaged to 48-well plate in 3D Matrigel with ENRCV. At day zero, media were replaced to ENR or ENRCD with or without indicated compounds, and media were replaced every other day. At day six, cells were washed twice with basal media and treated with carbamylcholine chloride (Sigma, C4382) for 3 hours. Media were collected and lysozyme activity was measured by EnzChek Lysozyme Assay Kit (ThermoFisher, E22013).
Lysozyme secretion assay. ISC-enriched organoids in 3D Matrigel culture were passaged to a 48- or 96-well plate and cultured with ENR or ENR+CD media containing DMSO or each drug for 6 days. DMSO- or drug-containing media were changed every other day. On day 6, cells were washed with basal media twice and treated with basal media with or without 10 μM carbamoylcholine chloride for 3 h in a CO2 incubator at 37° C. A part of the conditioned media was collected and used for lysozyme assay (Thermo, E-22013) following the manufacturer's instruction. The fluorescence was measured using excitation/emission of 485/530 nm. CellTiter-Glo 3D Reagent (Promega, G9681) was added afterward, and the cell culture plate was incubated on an orbital shaker at RT for 30 min to induce cell lysis and to stabilize the luminescent signal. The solution was replaced to a 96-well white microplate, and luminescent signals were measured by a microplate reader (infinite M200, Tecan). The standard curve was prepared by diluting recombinant ATP (Promega, P1132). For both assays, a polynomial cubic curve was fitted to a set of standard data, and each sample value was calculated on the Microsoft Excel.

[5] = system: ENR+CD organoids (ISC to Paneth cell differentiation); test: Secondary (validation) screen: LYZ.NS basal lysozyme secretion, 2.5-D 384-well ENR+CD organoids; type: cell-based, mouse; settings: 6-day ENR+CD, vs ENR+CD+DMSO
[6] = system: ENR+CD organoids (ISC to Paneth cell differentiation); test: Secondary (validation) screen: LYZ.S CCh-stimulated lysozyme secretion, 2.5-D 384-well ENR+CD organoids; type: cell-based, mouse; settings: 6-day ENR+CD, vs ENR+CD+DMSO
[7] = system: ENR+CD organoids; test: Secondary (validation) screen: ATP (CTG) assay, 2.5-D 384-well ENR+CD organoids; type: cell-based, mouse; settings: 6-day ENR+CD, vs ENR+CD+DMSO

C=C1C[C@@H]2[C@H](CC[C@]3(C)C(=O)CC[C@@H]23)[C@@]2(C)C=CC(=O)C=C12 [Exemestane]
Dose.FC.CTG ([1]; dose 0.08 uM): −0.046 log2 fold change | Dose.FC.CTG ([1]; dose 0.40 uM): −0.407 log2 fold change | Dose.FC.CTG ([1]; dose 2.00 uM): 0.170 log2 fold change | Dose.FC.CTG ([1]; dose 10.00 uM): −0.167 log2 fold change | Z.CTG ([1]; dose 0.08 uM): −0.110 | Z.CTG ([1]; dose 0.40 uM): −0.973 | Z.CTG ([1]; dose 2.00 uM): 0.405 | Z.CTG ([1]; dose 10.00 uM): −0.398 | Dose.FC.LYZ.NS ([2]; dose 0.08 uM): 0.051 log2 fold change | Dose.FC.LYZ.NS ([2]; dose 0.40 uM): 0.079 log2 fold change | Dose.FC.LYZ.NS ([2]; dose 2.00 uM): 0.001 log2 fold change | Dose.FC.LYZ.NS ([2]; dose 10.00 uM): 0.007 log2 fold change | Z.LYZ.NS ([2]; dose 0.08 uM): 0.447 | Z.LYZ.NS ([2]; dose 0.40 uM): 0.687 | Z.LYZ.NS ([2]; dose 2.00 uM): 0.012 | Z.LYZ.NS ([2]; dose 10.00 uM): 0.060 | Dose.FC.LYZ.S ([3]; dose 0.08 uM): 0.062 log2 fold change | Dose.FC.LYZ.S ([3]; dose 0.40 uM): 0.035 log2 fold change | Dose.FC.LYZ.S ([3]; dose 2.00 uM): 0.058 log2 fold change | Dose.FC.LYZ.S ([3]; dose 10.00 uM): −0.005 log2 fold change

COc1cc2c(Nc3ccc(NC(=O)c4ccccc4)cc3)ncnc2cc1OCCCN1CCOCC1 [ZM447439, reference compound]
primary screen hit call (SSMD and z-scored FC cutoffs in both LYZ assays) [2]: lower-effect size hit of the primary screen | Paneth cell differentiation (functional LYZ secretion), compound alone [4]: did significantly increase Paneth cell differentiation

CCc1c(C(=O)C(N)=O)c2c(OCC(=O)O)cccc2n1Cc1ccccc1 [Varespladib (LY315920), Varespladib, reference compound]
Dose.FC.LYZ.NS ([5]; 0.02 uM): −0.091 log2 fold change | Dose.FC.LYZ.NS ([5]; 0.04 uM): 0.015 log2 fold change | Dose.FC.LYZ.NS ([5]; 0.08 uM): 0.090 log2 fold change | Dose.FC.LYZ.NS ([5]; […]): 0.156 log2 fold change | Dose.FC.CTG ([1]; dose 0.08 uM): 0.428 log2 fold change | Z.CTG (standard z score) ([1]; dose 0.08 uM): 1.022 | Dose.FC.CTG ([1]; dose 0.40 uM): 0.362 log2 fold change | Z.CTG (standard z score) ([1]; dose 0.40 uM): 0.864 | Dose.FC.CTG ([1]; dose 2.00 uM): 0.152 log2 fold change | Z.CTG (standard z score) ([1]; dose 2.00 uM): 0.363 | Dose.FC.CTG ([1]; dose 10.00 uM): 0.241 log2 fold change | Z.CTG (standard z score) ([1]; dose 10.00 uM): 0.575 | Dose.FC.LYZ.S ([6]; 0.02 uM): −0.138 log2 fold change | Dose.FC.LYZ.S ([6]; 0.04 uM): −0.044 log2 fold change | Dose.FC.LYZ.S ([6]; 0.08 uM): 0.065 log2 fold change | Dose.FC.LYZ.S ([6]; […]): 0.102 log2 fold change | primary screen hit call (SSMD and z-scored FC cutoffs in both LYZ assays) [2]: sole hit in their respective pathway | Dose.FC.LYZ.NS ([2]; dose 0.08 uM): 0.176 log2 fold change | Z.LYZ.NS (standard z score) ([2]; dose 0.08 uM): 1.533 | Dose.FC.LYZ.NS ([2]; dose 0.40 uM): 0.197 log2 fold change | Z.LYZ.NS (standard z score) ([2]; dose 0.40 uM): 1.719 | Dose.FC.LYZ.NS ([2]; dose 2.00 uM): 0.164 log2 fold change | Z.LYZ.NS (standard z score) ([2]; dose 2.00 uM): 1.430 | Dose.FC.LYZ.NS ([2]; dose 10.00 uM): 0.074 log2 fold change | Z.LYZ.NS (standard z score) ([2]; dose 10.00 uM): 0.643 | Dose.FC.CTG ([7]; 0.02 uM): 0.027 log2 fold change | Dose.FC.CTG ([7]; 0.04 uM): 0.113 log2 fold change | Dose.FC.CTG ([7]; 0.08 uM): 0.207 log2 fold change | Dose.FC.CTG ([7]; […]): 0.148 log2 fold change | Dose.FC.LYZ.S ([3]; dose 0.08 uM): 0.274 log2 fold change | Dose.FC.LYZ.S ([3]; dose 0.40 uM): 0.157 log2 fold change | Dose.FC.LYZ.S ([3]; dose 2.00 uM): 0.176 log2 fold change | Dose.FC.LYZ.S ([3]; dose 10.00 uM): 0.051 log2 fold change

c1ccc2c(CCNc3ccc(Nc4ccncc4)cc3)c[nH]c2c1 [serdemetan]
Paneth cell differentiation (functional LYZ secretion), compound alone [4]: neither P53 inhibitor altered Paneth cell differentiation | Paneth cell differentiation (functional LYZ secretion), in combination with KPT-330 ([4]; with KPT-330 (160 nM)): neither P53 inhibitor altered Paneth cell differentiation
